The Kd is the concentration at which binding is half-saturated. Usually IC50 stands for the midpoint of a concentration-inhibition curve.

Where two headings read alike, the source gives them in different places.

The values below come from patent US9751837B2, “Kinase inhibitors” (RESPIVERT LIMITED, priority 2014, dated 2017).

One series concerns the target Lck (Homo sapiens (Human), UniProt P06239). The experiment in a line: KINOMEscan dissociation constant, Lck. In kind it is binding. An excerpt: (§1) These assays may be conducted by DiscoverX (formerly Ambit; San Diego, Calif.).
A further series deals with p38 MAPKα (Homo sapiens (Human), UniProt Q16539). The experiment in a line: KINOMEscan dissociation constant, p38 MAPKα. In kind it is binding.
Chain of p38 MAPKα (Q16539 whole entry): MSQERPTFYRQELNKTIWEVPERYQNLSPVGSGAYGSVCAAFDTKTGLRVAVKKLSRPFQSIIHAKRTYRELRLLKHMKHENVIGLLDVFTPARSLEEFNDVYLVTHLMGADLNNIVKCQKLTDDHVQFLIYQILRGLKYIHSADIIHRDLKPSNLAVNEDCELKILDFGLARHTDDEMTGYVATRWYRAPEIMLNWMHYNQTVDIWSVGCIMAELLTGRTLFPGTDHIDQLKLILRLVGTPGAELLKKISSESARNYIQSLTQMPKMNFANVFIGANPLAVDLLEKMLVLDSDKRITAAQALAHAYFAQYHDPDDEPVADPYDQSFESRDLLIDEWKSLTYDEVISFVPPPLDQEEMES
Source text: as §1

Another series deals with Syk (Homo sapiens (Human), UniProt P43405). The experiment in a line: KINOMEscan dissociation constant, Syk. In kind it is binding.
Source text: as §1

A further series concerns the target GSK 3α (Homo sapiens (Human), UniProt P49840). Kind of series: GSK 3α enzyme inhibition (Method 2), Z-LYTE FRET. To be noted: read-out: IC50 Values for Enzyme Inhibition GSK3α. In kind it is biochemical. The essentials: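 Z-LYTE format: the protease cleaves only non-phosphorylated peptide, and the donor/acceptor (coumarin/fluorescein) ratio reports phosphorylation after a 1 hr kinase reaction with peptide (8 μM stock) and ATP (40 μM stock).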

The target in a further series is hERG (Homo sapiens (Human), UniProt Q12809). Kind of series: hERG inhibition, IonWorks patch clamp electrophysiology. In kind it is cell-based. As to conditions: human, hERG, read-out: % Inhibition at Top Concentration. On the procedure:
(§2) Compounds of the invention were tested for inhibition of the human ether a go-go (hERG) channel using IonWorks™ patch clamp electrophysiology at Essen Bioscience (Welwyn Garden City, England).
For orientation: The hERG channel carries a current that helps repolarise heart muscle cells.

Series [1] deals with human ether a go-go (hERG) channel (Homo sapiens (Human), UniProt Q12809). The description is as above. In kind it is cell-based. To be noted: IonWorks patch clamp. On the procedure:
as §2

The target in a further series is B-Raf (Homo sapiens (Human), UniProt P15056). Kind of series: KINOMEscan binding of B-Raf to its standard ligand.
Chain of B-Raf (P15056 whole entry): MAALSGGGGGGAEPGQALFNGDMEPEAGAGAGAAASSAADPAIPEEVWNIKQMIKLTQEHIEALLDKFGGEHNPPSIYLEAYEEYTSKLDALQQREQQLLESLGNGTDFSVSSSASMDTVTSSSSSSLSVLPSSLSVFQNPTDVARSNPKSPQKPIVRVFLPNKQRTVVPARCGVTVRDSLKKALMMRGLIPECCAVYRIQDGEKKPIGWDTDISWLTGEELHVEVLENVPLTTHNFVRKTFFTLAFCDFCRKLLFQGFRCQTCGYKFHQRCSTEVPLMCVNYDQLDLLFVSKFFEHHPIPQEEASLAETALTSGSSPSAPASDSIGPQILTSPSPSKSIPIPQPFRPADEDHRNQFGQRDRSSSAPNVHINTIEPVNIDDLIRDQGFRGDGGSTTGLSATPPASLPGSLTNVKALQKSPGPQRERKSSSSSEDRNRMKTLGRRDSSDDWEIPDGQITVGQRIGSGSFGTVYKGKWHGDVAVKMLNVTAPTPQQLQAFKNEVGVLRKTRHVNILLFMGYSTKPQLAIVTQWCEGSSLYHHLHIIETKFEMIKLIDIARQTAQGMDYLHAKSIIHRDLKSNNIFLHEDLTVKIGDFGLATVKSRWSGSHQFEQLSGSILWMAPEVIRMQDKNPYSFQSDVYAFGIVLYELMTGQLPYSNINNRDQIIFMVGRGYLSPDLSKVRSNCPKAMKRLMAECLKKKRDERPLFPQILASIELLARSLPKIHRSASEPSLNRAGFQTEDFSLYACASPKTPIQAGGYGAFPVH
Source text: as §1

In another series the target is B-Raf (V600E) (Homo sapiens (Human), UniProt P15056, V600E). The experiment in a line: KINOMEscan binding of B-Raf (V600E) to its standard ligand.
Chain of B-Raf (V600E) (P15056 whole entry V600E): as the sequence (P15056 whole entry) above, with V600E counted along it
Source text: as §1

A short description of series [2]: Pharmacokinetics and total colon distribution after single oral administration. In kind it is in vivo, male C57BL/6 mice. To be noted: male, C57BL/6, mouse, mice, oral 5 mg/kg. On the procedure: Studies were conducted by Sai Life Sciences (Hinjewadi, Pune, India) to investigate the systemic pharmacokinetics and total colon tissue distribution of compounds of the invention. In particular, pharmacokinetic studies were carried out in male C57BL/6 mice following a single oral administration of the compound.

Series [3] concerns Escherichia coli, WP2 uvrA. The experiment in a line: Bacterial reverse mutation screen, Escherichia coli.
The subject of series [4] is Salmonella typhimurium, strains TA1535, TA1537, TA98 and TA100. Kind of series: Bacterial reverse mutation screen, Salmonella typhimurium.
The next series concerns non-mutant kinases. The experiment in a line: KinomeScan Selectivity Scores. In kind it is binding.
Source text: as §1

The test system of a further series is Jurkat cells. Kind of series: Cell cytotoxicity assay (r). In kind it is cell-based, human. As to conditions: 24 hours, 5 μg/mL. In a few lines:
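Viability read by flow cytometry as the fraction of propidium iodide-negative cells (7.5 μg/mL PI, 15 min), relative to 1.0% DMSO control. Beforehand, 1×10^5 Jurkat cells in RPMI/10% FBS were treated 24 h at 37° C., 5% CO2 with test compound at final 20, 5 or 1 μg/mL.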

The mark [5] stands for this setting: plasma, measured cpd = dosed cpd (1 as Na salt, 44 as NH4+ salt), read-out: Mean plasma concentration.
[6] abbreviates: total colon tissue, measured cpd = dosed cpd (1, 19, 47 as Na salt, 44 as NH4+ salt), read-out: total colon level.
Setting [7] is: total colon, measured cpd = dosed cpd (1, 19, 47 as Na salt, 44 as NH4+ salt), read-out: total colon level.
The mark [8] stands for this setting: blood, measured cpd = dosed cpd (19, 47 as Na salt), read-out: Mean blood concentration.

Chain of hERG (Q12809 whole entry): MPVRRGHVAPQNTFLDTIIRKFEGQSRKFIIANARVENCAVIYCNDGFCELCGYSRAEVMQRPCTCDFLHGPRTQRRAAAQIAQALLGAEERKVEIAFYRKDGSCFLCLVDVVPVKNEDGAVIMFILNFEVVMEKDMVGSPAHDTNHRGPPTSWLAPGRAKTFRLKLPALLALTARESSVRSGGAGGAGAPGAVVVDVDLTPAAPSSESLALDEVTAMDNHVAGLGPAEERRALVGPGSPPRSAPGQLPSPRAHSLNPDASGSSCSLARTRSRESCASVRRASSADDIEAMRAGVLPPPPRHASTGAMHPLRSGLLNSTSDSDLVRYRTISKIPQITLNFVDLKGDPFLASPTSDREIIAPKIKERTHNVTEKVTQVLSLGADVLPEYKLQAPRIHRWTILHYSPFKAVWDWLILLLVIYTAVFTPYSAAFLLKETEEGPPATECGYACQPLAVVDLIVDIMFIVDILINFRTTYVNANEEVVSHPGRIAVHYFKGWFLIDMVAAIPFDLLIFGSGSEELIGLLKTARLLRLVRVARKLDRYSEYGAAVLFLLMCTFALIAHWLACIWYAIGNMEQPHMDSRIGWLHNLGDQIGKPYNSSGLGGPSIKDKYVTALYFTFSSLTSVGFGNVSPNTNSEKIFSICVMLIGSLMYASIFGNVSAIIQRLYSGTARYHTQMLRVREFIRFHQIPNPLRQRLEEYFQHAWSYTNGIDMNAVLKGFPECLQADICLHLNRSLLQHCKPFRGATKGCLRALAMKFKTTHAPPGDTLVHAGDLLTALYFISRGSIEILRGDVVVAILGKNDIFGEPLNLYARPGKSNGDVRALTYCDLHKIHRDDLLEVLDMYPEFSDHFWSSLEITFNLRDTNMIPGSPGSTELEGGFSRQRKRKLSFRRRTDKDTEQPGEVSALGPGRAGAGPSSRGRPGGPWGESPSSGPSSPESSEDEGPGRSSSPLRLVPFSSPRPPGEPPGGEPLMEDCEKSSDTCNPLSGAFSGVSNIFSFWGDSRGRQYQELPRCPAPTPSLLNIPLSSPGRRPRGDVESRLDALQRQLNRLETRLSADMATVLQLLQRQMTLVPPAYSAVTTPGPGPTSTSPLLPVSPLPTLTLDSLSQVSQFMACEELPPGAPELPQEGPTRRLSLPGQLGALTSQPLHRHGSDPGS
Chain of human ether a go-go (hERG) channel (Q12809 whole entry): as above
Chain of Lck (P06239 whole entry): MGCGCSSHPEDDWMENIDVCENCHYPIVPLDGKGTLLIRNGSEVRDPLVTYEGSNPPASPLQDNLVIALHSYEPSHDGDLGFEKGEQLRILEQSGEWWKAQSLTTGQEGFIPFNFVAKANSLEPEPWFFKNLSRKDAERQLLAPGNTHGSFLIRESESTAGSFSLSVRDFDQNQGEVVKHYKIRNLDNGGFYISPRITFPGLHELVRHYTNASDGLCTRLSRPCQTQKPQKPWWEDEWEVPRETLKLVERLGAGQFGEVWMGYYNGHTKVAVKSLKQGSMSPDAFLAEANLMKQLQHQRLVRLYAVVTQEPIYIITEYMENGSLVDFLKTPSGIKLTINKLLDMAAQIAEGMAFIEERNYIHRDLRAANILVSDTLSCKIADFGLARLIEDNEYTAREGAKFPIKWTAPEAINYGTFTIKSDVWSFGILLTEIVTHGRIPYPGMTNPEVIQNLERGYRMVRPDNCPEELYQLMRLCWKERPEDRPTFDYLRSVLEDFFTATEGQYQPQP
Chain of GSK 3α (P49840 whole entry): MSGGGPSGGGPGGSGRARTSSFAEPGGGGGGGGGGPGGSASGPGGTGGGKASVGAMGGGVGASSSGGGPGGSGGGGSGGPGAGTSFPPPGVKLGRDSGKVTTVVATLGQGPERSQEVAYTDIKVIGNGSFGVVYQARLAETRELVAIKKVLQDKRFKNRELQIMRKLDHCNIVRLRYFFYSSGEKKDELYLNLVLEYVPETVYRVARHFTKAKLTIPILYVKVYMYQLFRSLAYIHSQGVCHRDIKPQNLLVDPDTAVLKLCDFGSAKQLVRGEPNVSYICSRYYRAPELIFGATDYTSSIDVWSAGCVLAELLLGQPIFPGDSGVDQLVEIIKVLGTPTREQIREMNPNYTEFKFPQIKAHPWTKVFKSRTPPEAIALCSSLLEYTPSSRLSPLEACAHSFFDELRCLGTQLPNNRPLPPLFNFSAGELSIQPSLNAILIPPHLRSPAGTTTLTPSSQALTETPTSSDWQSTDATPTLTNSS

Take `COc1cc(Nc2cc(Oc3ccc(NC(=O)Nc4cc(C(C)(C)C)cc(NS(C)(=O)=O)c4OC)c4ccccc34)ccn2)ccc1C(=O)NCCN1CCOCC1` [Example 2, 4-((4-((4-(3-(5-(tert-Butyl)-2-methoxy-3-(methylsulfonamido)phenyl)ureido)naphthalen-1-yl)oxy)pyridin-2-yl)amino)-2-methoxy-N-(2-morpholinoethyl)benzamide]: the figures for the Kd at Lck, at p38 MAPKα and on Syk were 5.8 nM, 23 nM and 18 nM, respectively. Also, the IC50 on GSK 3α was 2300 nM; in [1] it was > 3300 nM. Moreover, on hERG (3 μM), the inhibition at 3 µM was -2%.

For the compound `COc1cc(Nc2cc(Oc3ccc(NC(=O)Nc4cc(C(C)(C)C)cc(NS(C)(=O)=O)c4OC)c4ccccc34)ccn2)ccc1P(C)(=O)O` [Example 44, (4-((4-((4-(3-(5-(tert-Butyl)-2-methoxy-3-(methylsulfonamido)phenyl)ureido)naphthalen-1-yl)oxy)pyridin-2-yl)amino)-2-methoxyphenyl)(methyl)phosphinic acid], the Kd on Lck amounted to 5.3 nM; on p38 MAPKα it was 1.9 nM; at Syk, 6.6 nM. The “effect on the binding of B-Raf to its standard ligand” value on B-Raf is on record as “did not have any significant effect”. Besides, on B-Raf (V600E), the “effect on the binding of B-Raf (V600E) to its standard ligand” value is on record as “did not have any significant effect”. In addition, the figures for the concentration at 0.5 h in series [2] (setting [5]) and in [2] (setting [7]) were 0 ng/mL and 0 ng/g, respectively. In addition, the figures for the concentration at 1 h in series [2] (setting [5]) and in [2] (setting [7]) were 0 ng/mL and 0 ng/g, respectively. Besides, the concentration at 2 h in series [2] (setting [5]) was 0 ng/mL; in series [2] (setting [6]) it was 2330 ng/g. Besides, the values for the concentration at 4 h in series [2] (setting [5]) and in series [2] (setting [6]) were 0 ng/mL and 1750 ng/g, respectively. The concentration at 6 h in series [2] (setting [5]) came out at 0 ng/mL; in [2] (setting [6]), 450 ng/g. For the same compound, the concentration at 8 h was 0 ng/mL in series [2] (setting [5]) and 915 ng/g in [2] (setting [6]). Moreover, the concentration at 12 h was 0 ng/mL in series [2] (setting [5]) and 180 ng/g in series [2] (setting [6]). Further, the concentration at 24 h in series [2] (setting [5]) was 0 ng/mL; in series [2] (setting [7]) it was 0 ng/g. Further, the inhibition at 11 µM at hERG was 18%. Also, the 50% inhibitory concentration (IC50) in series [1] is > 11000 nM. Besides, the “dose with reduction in the mean colony count (toxicity to the bacteria)” value in series [3] (absence of S-9 mix) is recorded as 5000 μg/plate; in [4] (TA98, presence of S-9 mix), 5000 μg/plate; in series [4] (TA100, presence of S-9 mix), 5000 μg/plate; in [4] (TA1535, presence of S-9 mix) it was 5000 μg/plate; in series [4] (TA1537, presence of S-9 mix), 5000 μg/plate. For the same compound, the “mutagenic effects (revertant numbers)” value in [3] (presence or absence of S-9 mix, plate incorporation) was “absence of any mutagenic effects”; in series [4] (TA1535, TA1537, TA98, TA100, presence or absence of S-9 mix, plate incorporation), “absence of any mutagenic effects”. Further, the “limit of solubility in the mutation test” value in series [4] (all strains, presence and absence of S-9 mix, plate incorporation) is on record as 5000 μg/plate.

`COc1cc(Nc2cc(Oc3ccc(NC(=O)Nc4cc(C(C)(C)C)cc(NS(C)(=O)=O)c4OC)c4ccccc34)ccn2)cc(OC)c1C(=O)NCCOCCOCCOP(=O)(O)O` [Example 47, 2-(2-(2-(4-((4-((4-(3-(5-(tert-butyl)-2-methoxy-3-(methylsulfonamido)phenyl)ureido)-naphthalen-1-yl)oxy)pyridin-2-yl)amino)-2,6-dimethoxybenzamido)ethoxy)ethoxy)ethyl dihydrogen phosphate]: the “effect on the binding of B-Raf to its standard ligand” value on B-Raf is given as “did not have any significant effect”. Also, on B-Raf (V600E), the “effect on the binding of B-Raf (V600E) to its standard ligand” value was “did not have any significant effect”. For the same compound, the “KinomeScan Selectivity Score S(10)” value in the series on non-mutant kinases (50 nM, (non-mutant kinases with % Ctrl <10)/(non-mutant kinases tested)) was determined as 0.042. Further, in the series on non-mutant kinases (500 nM, (non-mutant kinases with % Ctrl <1)/(non-mutant kinases tested)), the “KinomeScan Selectivity Score S(1)” value came to 0.074. In addition, in the series with Jurkat cells, the “% Viability at 5 μg/mL” value stood at 96.0%. In addition, in [2] (setting [8]), the concentration at 0.5 h worked out at 0 ng/mL, the concentration at 1 h is 0 ng/mL, the concentration at 2 h came out at 0 ng/mL and the concentration at 4 h was found to be 0 ng/mL. Besides, in series [2] (setting [8]), the concentration at 6 h is 0 ng/mL, the concentration at 8 h was found to be 0 ng/mL, the concentration at 12 h was 0 ng/mL and the concentration at 24 h came to 0 ng/mL. Also, in series [2] (setting [6]), the concentration at 2 h was 0 ng/g, the concentration at 4 h is 0 ng/g, the concentration at 6 h came to 0 ng/g and the concentration at 8 h worked out at 0 ng/g. The concentration at 12 h in series [2] (setting [6]) was found to be 0 ng/g. Moreover, in series [2] (setting [7]), the concentration at 0.5 h is 0 ng/g, the concentration at 1 h came to 0 ng/g and the concentration at 24 h is 0 ng/g. Besides, the inhibition at 11 µM on hERG is 19%. Besides, in [1], the IC50 was > 11000 nM.
